# Reference: patent US6566371B2, “Intraperitoneal administration of adenosine for the treatment of prevention of gastrointestinal of systemic diseases” (University of Pittsburgh, priority 2000, dated 2003)
# Like-named read-outs stand apart in the source and are kept apart here.
# How the values were obtained:
# [1] = Microdialysis of mesenteric vein and aortic arch during continuous peritoneal lavage with adenosine or AMP (Example 2)
# Description: (§1) In all the examples adult male Sprague-Dawley rats were purchased from Charles River Laboratories (Wilmington, Mass.) and maintained in the University of Pittsburgh Animal Facility (Pittsburgh, Pa.). Rats were provided free access to Prolab Isopro RMH 3000 rodent diet (PMI Nutrition Intl., Richmond, Ind.) and tap water. Light cycle, relative humidity and room temperature were 7:00 AM to 7:00 PM, 55% and 22° C., respectively. Animals weighed 357±11 (mean±SEM) grams at the time of study.
# (§2) Rats (n=5) were anesthetized and body temperature monitored and maintained as described for Example 1. The trachea was cannulated with PE-240 and a PE-50 catheter was inserted into the right jugular vein and an intravenous infusion of 0.9% saline was initiated at 50 μl/min. A femoral artery catheter (PE-50) was inserted and was connected to a digital blood pressure analyzer for continuous measurement of MABP and heart rate. Next, microdialysis probes (CMA/20 microdialysis probe 4 mm, Bioanalytical Systems, Inc., West Lafayette, Ind.) were inserted into the aortic arch (via the left carotid artery) and mesenteric vein. Microdialysis probes were perfused with 0.9% saline at 2 μl/min, and the dialysate exiting the probes was collected in a freezing apparatus. As in Example 1, a basin was constructed from the abdominal wall to create a bowl containing the viscera. However, unlike Example 1, instead of intermittent lavage with fresh solutions, the abdominal basin was continuously perfused with Tyrode's solution (5 ml/min) (Mi, Z., et al., J. Pharmacol. Exp. Ther. 287:926 (1998), the disclosure of which is incorporated herein by reference) that was maintained at 37° C. by a heated water bath. Thus, the viscera were submerged completely in Tyrode's solution that was constantly being replaced. After a 20-minute stabilization period, dialysate from the microdialysis probes was collected for 20 minutes. Next, the Tyrode's solution perfusing the peritoneal cavity was switched to prewarmed Tyrode's containing 10^−5 M adenosine (Sigma). After 10 minutes, the dialysate was collected for another 20 minutes. This procedure was repeated two more times as the concentration of adenosine was increased to 10^−4 M and finally to 10^−3 M. To determine whether AMP would behave as a “prodrug” for the delivery of adenosine, after a 20 minute washout period, the entire protocol was repeated with AMP (10^−5 M, 10^−4 M and 10^−3 M) (Sigma).
# (§3) Statistical Analysis: Data were analyzed in this example by repeated measures 1-factor analysis of variance. […] Statistical analyses were conducted with NCSS software (Version 6.0; Kaysville, Utah), and the criterion of significance was p<0.05.
# (§4) Sample Analysis: Levels of adenosine and its metabolites, inosine, hypoxanthine and xanthine, in the dialysate samples in this example were measured using an Isco (Lincoln, Nebr.) high-pressure liquid chromatographic system (pump model 2350, gradient programmer model 2360, 4.6×250-mm C18 column) with UV detection as described by Mi, Z., et al., J. Pharmacol. Exp. Ther. 273:728 (1995). The chromatography data system was JCL 6000 for Windows (Jones Chromatography LTD., Lakewood, Colo.).
# [2] = test system: anesthetized rats with mesenteric vasoconstriction induced by angiotensin II plus methoxamine; experiment: Intraperitoneal lavage with adenosine during intramesenteric artery infusion of angiotensin II plus methoxamine (Example 1); type: in vivo, Sprague-Dawley rats
# [3] = rat, in vivo
# Description: as §1, §2, §3, §4
# [4] = test system: rats subjected to hemorrhagic shock; experiment: Hemorrhagic shock and resuscitation with continuous peritoneal lavage (Example 3); type: in vivo, Sprague-Dawley rats
# Description: The methods of the present invention are illustrated in more detail below. […] In a second study, microdialysis probes were placed in the mesenteric vein and aortic arch of rats, and the peritoneal cavity was continuously ravaged with adenosine or AMP solutions. In a third study, rats were subjected to hemorrhagic shock (2.75 ml of blood removed per 100 grams of body weight over a 15 minute period) for two hours, followed by volume resuscitation for one hour and observation for 72 hours. Rats received peritoneal lavage with adenosine or vehicle (0.9% saline) beginning 20 minutes after blood withdrawal and continuing through the one hour resuscitation period.
# Hemorrhagic shock was induced by removing 2.75 ml of blood per 100 grams of body weight over a 15 minute period. Two hours after blood withdrawal, the animals were resuscitated by reinfusing the withdrawn blood and restoring and maintaining a normal blood pressure for one hour by infusing Ringer's solution (Baxter, Deerfield, Ill.) as needed. Beginning 20 minutes after blood withdrawal and continuing for one hour after reinfusion of the withdrawn blood, rats received either continuous peritoneal lavage with adenosine (10^−4 M) or 0.90% saline.
# [5] = continuous peritoneal lavage with 10^-3 M
# [6] = Group 2, period 7, 10^-3 M adenosine in peritoneal lavage fluid
# [7] = continuous peritoneal lavage with adenosine 10^-4 M
compound,measurement,setting,value
"Nc1ncnc2c1ncn2[C@@H]1O[C@H](COP(=O)(O)O)[C@@H](O)[C@H]1O [AMP, adenosine-5′-monophosphate]",purine levels in the aorta,[1]; [5],not in the aorta
same,purine levels in the mesenteric vein,[1]; [5],increased purine levels in the mesenteric vein
same,MABP,"[1]; during 10^-3 M in continuous peritoneal lavage, basal 113±5 (adenosine), 112±4 (AMP), not significantly affected",117±7 mm Hg
same,heart rate,"[1]; during 10^-3 M in continuous peritoneal lavage, basal 351±15 (adenosine), 357±17 (AMP), not significantly affected",366±22 beats/min
Nc1ncnc2c1ncn2[C@@H]1O[C@H](CO)[C@@H](O)[C@H]1O [adenosine],heart rate,"[2]; Group 2, increasing adenosine 10^-7 to 10^-3 M in lavage",not significantly different among the seven experimental periods
same,"MBF compared with period 1 (no infusion, no adenosine)",[2]; [6],not significantly different than the MBF during period 1
same,"MBF compared with period 2 (vasoconstrictors, no adenosine)",[2]; [6],significantly greater than the MBF during period 2
same,mesenteric blood flow (MBF),"[2]; Group 2, periods 3-6, adenosine 10^-7 M to 10^-4 M in peritoneal lavage fluid, intermittent lavage",remained significantly depressed
same,heart rate (bradycardia),"[2]; Group 3, 10^-3 M adenosine in peritoneal lavage fluid",did not cause bradycardia
same,MABP,"[2]; Group 3, 10^-3 M adenosine, period 4 and period 5",very slight and transient increase
same,MBF compared with period 1,"[2]; Group 3, by period 7, fixed 10^-3 M adenosine in peritoneal lavage fluid",no longer significantly different compared with experimental period 1
same,MBF compared with period 2,"[2]; Group 3, periods 3-7, fixed 10^-3 M adenosine in peritoneal lavage fluid",significantly greater than MBF during period 2
same,mesenteric blood flow (summary),"[2]; peritoneal lavage with adenosine, p<0.05",normalized mesenteric blood flow
same,adenosine level in dialysate exiting mesenteric vein microdialysis catheter,"[3]; male, Sprague-Dawley",2.17 ± 0.60 µM
same,hypoxanthine level in dialysate exiting mesenteric vein microdialysis catheter,"[3]; male, Sprague-Dawley",0.18 ± 0.04 µM
same,inosine level in dialysate exiting mesenteric vein microdialysis catheter,"[3]; male, Sprague-Dawley",1.03 ± 0.32 µM
same,xanthine level in dialysate exiting mesenteric vein microdialysis catheter,"[3]; male, Sprague-Dawley",0.26 ± 0.06 µM
same,MABP,[3],108±4 mm Hg
same,heart rate,[3],362±14 beats/min
same,"levels of adenosine, inosine, hypoxanthine or xanthine in the aorta (dialysate)",[3],did not significantly alter
same,"levels of adenosine, inosine, hypoxanthine or xanthine in the mesenteric vein (dialysate)",[3],did not significantly alter
same,arterial pH vs vehicle-treated group,[4]; [7],significantly (p<0.05) higher
same,blood urea nitrogen vs vehicle-treated group,[4]; [7],significantly (p<0.05) lower
same,plasma level of lactate vs vehicle-treated group,[4]; [7],significantly (p<0.05) lower
same,plasma level of potassium vs vehicle-treated group,[4]; [7],significantly (p<0.05) lower
same,survival to 72 hours,"[4]; continuous peritoneal lavage with adenosine 10^-4 M, vehicle 4 of 10, p<0.05",9 of 10
same,MABP and heart rate vs vehicle-treated group,"[4]; during hemorrhagic shock and resuscitation, adenosine 10^-4 M lavage",similar
